Results from patent US8629277B2, “Styrenyl 1,2,4-oxadiazole compounds” (Piramal Enterprises Limited, priority 2010, dated 2014).
Where two headings read alike, the source gives them in different places.

Experiments:
Ba/F3 Bcr-Abl/T315I [1] = target: Ba/F3 Bcr-Abl/T315I (Homo sapiens, UniProt P00519, T315I, cells depend on it)
Source text: (§1) Cell Proliferation and Cytotoxicity CCK-8 Assay:
(§2) Cell Counting Kit-8 (CCK-8) assay is a sensitive colorimetric assay for the determination of number of viable cells in cell proliferation and cytotoxicity assays. Cell Counting Kit-8 (CCK-8) utilizes Dojindo's highly water-soluble tetrazolium salt. The amount of the formazan dye generated by dehydrogenases in cells is directly proportional to the number of living cells.
(§3) The cell lines described in Table 1 were used to test the antiproliferative activity of the compounds of the present invention.
(§4) Cells were seeded at a density of ˜5×10^3 per well (0.09 mL) in a transparent 96-well tissue culture plate (NUNC, USA) and allowed to incubate at 37° C., 5% CO2 incubator for 2-6 h. Different concentrations of compounds of the present invention were added to the wells of the culture plate in triplicate. […] Plates were further incubated in an incubator at 37° C. in presence of 5% CO2 for 72 h. 10 μL of the CCK-8 solution was added to each well and plate was incubated for 1-4 h in the incubator. The absorbance was measured at 450 nm using a microplate reader. The percent inhibition and IC50 were calculated in comparison with control values.

Ba/F3 Bcr-Abl/E255K = target: T1, Ba/F3 Bcr-Abl/E255K (Homo sapiens, UniProt P00519, E255K, cells depend on it); assay: Cell proliferation and cytotoxicity CCK-8 assay; format: cell-based; details: mouse, 72 h
T1 construct: fused on or other part: P11274 (Breakpoint cluster region protein)

Ba/F3 Bcr-Abl/M351T = target: T2, Ba/F3 Bcr-Abl/M351T (Homo sapiens, UniProt P00519, M351T, cells depend on it); assay: Cell proliferation and cytotoxicity CCK-8 assay; format: cell-based; details: mouse, 72 h
T2 construct: fused on or other part: P11274 (Breakpoint cluster region protein)

Ba/F3 Bcr-Abl/WT = target: T3, Ba/F3 Bcr-Abl/WT (Homo sapiens, UniProt P00519); assay: Cell proliferation and cytotoxicity CCK-8 assay; format: cell-based; details: imatinib sensitive cell line; CCK-8, 72 h; read-out: Inhibitory concentrations (IC50) Ba/F3 Bcr-Abl/WT
T3 construct: fused on or other part: P11274 (Breakpoint cluster region protein)
Source text: as §1, §2, §3, §4

Ba/F3 Bcr-Abl/Q252H = target: T4, Ba/F3 Bcr-Abl/Q252H (Homo sapiens, UniProt P00519, Q252H, cells depend on it); assay: Cell proliferation and cytotoxicity CCK-8 assay; format: cell-based; details: mouse, 72 h
T4 construct: fused on or other part: P11274 (Breakpoint cluster region protein)

Ba/F3 Bcr-Abl/H396P = target: T5, Ba/F3 Bcr-Abl/H396P (Homo sapiens, UniProt P00519, H396P, cells depend on it); assay: Cell proliferation and cytotoxicity CCK-8 assay; format: cell-based; details: mouse, 72 h
T5 construct: fused on or other part: P11274 (Breakpoint cluster region protein)

K562 [2] = assay: Cell proliferation and cytotoxicity CCK-8 assay; format: cell-based, human; details: Homo sapiens; imatinib sensitive cell line K562; CCK-8, 72 h; read-out: Inhibitory concentrations (IC50) K562
Ba/F3 Bcr-Abl/F359V = target: T6, Ba/F3 Bcr-Abl/F359V (Homo sapiens, UniProt P00519, F359V, cells depend on it); assay: Cell proliferation and cytotoxicity CCK-8 assay; format: cell-based; details: mouse, 72 h
T6 construct: fused on or other part: P11274 (Breakpoint cluster region protein)

Ba/F3 Bcr-Abl/M244V = target: T7, Ba/F3 Bcr-Abl/M244V (Homo sapiens, UniProt P00519, M244V, cells depend on it); assay: Cell proliferation and cytotoxicity CCK-8 assay; format: cell-based; details: mouse, 72 h
T7 construct: fused on or other part: P11274 (Breakpoint cluster region protein)

Ba/F3 Bcr-Abl/F317L = target: T8, Ba/F3 Bcr-Abl/F317L (Homo sapiens, UniProt P00519, F317L, cells depend on it); assay: Cell proliferation and cytotoxicity CCK-8 assay; format: cell-based; details: mouse, 72 h
T8 construct: fused on or other part: P11274 (Breakpoint cluster region protein)

Ba/F3 Bcr-Abl/T315I [3] = assay: In-vivo efficacy in imatinib-resistant xenograft model in SCID mice; details: 200 mpk b.i.d., p.o.
Experimental: Cell lines Ba/F3 transfectants expressing full-length wild type imatinib sensitive (Ba/F3 Bcr-Abl/WT) or mutated imatinib resistant (Ba/F3 Bcr-Abl/T315I) were used in this study.
Required compound was weighed and admixed with 0.5% (w/v) carboxymethylcellulose (CMC) and triturated with Tween-20 (secundum artum) with gradual addition of water to make up the final concentration.
Ba/F3 Bcr-Abl/WT cells and Ba/F3 Bcr-Abl/T315I cells were grown in RPMI1640 medium containing 10% fetal calf serum in 5% CO2 incubator at 37° C. Cells were pelleted by centrifugation at 1000-rpm for 10 minutes. Cells were resuspended in saline to get a count of 80-100×10^6 cells per mL, 0.2 mL of this cell suspension was injected by subcutaneous (s.c.) route in SCID mice. Mice were observed alternate days for palpable tumor mass. Once the tumor size reached a size of 5-7 mm in diameter, animals were randomized into respective treatment groups. Dose of control or test compound was administered every day. Tumor size was recorded at 2-5 day intervals. Tumor weight (mg) was estimated according to the formula for a prolate ellipsoid: {Length (mm)×[width (mm)^2]×0.5} assuming specific gravity to be one and π to be three. Tumor growth in compound treated animals is calculated as T/C (Treated/Control)×100% and Growth inhibition Percent (GI %) was [100−T/C %].

Ba/F3 Bcr-Abl/Y253H = target: T9, Ba/F3 Bcr-Abl/Y253H (Homo sapiens, UniProt P00519, Y253H, cells depend on it); assay: Cell proliferation and cytotoxicity CCK-8 assay; format: cell-based; details: mouse, 72 h
T9 construct: fused on or other part: P11274 (Breakpoint cluster region protein)

Ba/F3 Bcr-Abl/Y253F = target: T10, Ba/F3 Bcr-Abl/Y253F (Homo sapiens, UniProt P00519, Y253F, cells depend on it); assay: Cell proliferation and cytotoxicity CCK-8 assay; format: cell-based; details: mouse, 72 h
T10 construct: fused on or other part: P11274 (Breakpoint cluster region protein)

Ba/F3 Bcr-Abl/E255V = target: T11, Ba/F3 Bcr-Abl/E255V (Homo sapiens, UniProt P00519, E255V, cells depend on it); assay: Cell proliferation and cytotoxicity CCK-8 assay; format: cell-based; details: mouse, 72 h
T11 construct: fused on or other part: P11274 (Breakpoint cluster region protein)

Ba/F3 Bcr-Abl/H396R = target: T12, Ba/F3 Bcr-Abl/H396R (Homo sapiens, UniProt P00519, H396R, cells depend on it); assay: Cell proliferation and cytotoxicity CCK-8 assay; format: cell-based; details: mouse, 72 h
T12 construct: fused on or other part: P11274 (Breakpoint cluster region protein)

Ba/F3 = assay: Flow cytometric analysis of apoptosis (PI staining); format: cell-based
Experimental: (§5) Effect of the Compounds of Present Invention in Bcr-Abl Mutated Imatinib Mesylate-Resistant Cell Lines on Cell Cycle and Apoptosis Using Flow Cytometry.
(§6) The assay was carried out as in reference, FEBS Letters, 2007, 581, 7, 1329-1334. […] At the end of incubation, cells were harvested by centrifugation at 1000 rpm for 10 minutes, washed with phosphate buffered saline (PBS) and gradually resuspended in 70% ice-cold ethanol (to facilitate the permeablisation of stains). Cell suspension was stored for a minimum period of 4 h before staining with propidium iodide (PI). Fixed cells were stained with PI (80 μg/mL) in presence of RNase A (50 μg/mL), and read on Becton Dickinson FACS Calibur (USA) for cell cycle analysis.

T315I = assay: as above; format: cell-based
Experimental: as §5, §6

E255V = assay: as above; format: cell-based
Experimental: as §5, §6

Y253 = assay: as above; format: cell-based
Experimental: as §5, §6

K562 [4] = assay: as above; format: cell-based, human
Experimental: as §5, §6

[5] = mouse, ba/f3 bcr-abl/t315i, 72 h
[6] = read-out: Inhibitory concentrations (IC50) Ba/F3 Bcr-Abl/T315I, imatinib resistant cell line, CCK-8, 72 h

In the case of `CCCc1noc(C=Cc2ccc(O)c(O)c2)n1` [Compound of Example 3, 4-[2-(3-Propyl-[1,2,4]oxadiazol-5-yl)-vinyl]-benzene-1,2-diol], the GI50 (Ba/F3 Bcr-Abl/T315I [1]; [5]) is reported as 2.32 ± 0.68 µM, the GI50 (Ba/F3 Bcr-Abl/T315I [1]; [6]) is reported as < 10 µM and the GI50 (Ba/F3 Bcr-Abl/E255K) is reported as 5.4 µM. For the same compound, the GI50 (Ba/F3 Bcr-Abl/M351T) was 5.7 ± 1.7 µM, the GI50 (Ba/F3 Bcr-Abl/WT) was < 10 µM and the GI50 (Ba/F3 Bcr-Abl/Q252H) was 2.6 ± 0.84 µM. It also gave a GI50 (Ba/F3 Bcr-Abl/H396P) of 2 ± 0.98 µM, an IC50 (K562 [2]) of 11 to 100 µM and a GI50 (Ba/F3 Bcr-Abl/F359V) of 2 ± 0.42 µM. For the same compound, the GI50 (Ba/F3 Bcr-Abl/M244V) was 2.1 µM, the GI50 (Ba/F3 Bcr-Abl/F317L) was 1.95 ± 0.21 µM and the “Tumor growth inhibition percent (% GI) Ba/F3 Bcr-Abl/T315I” value (Ba/F3 Bcr-Abl/T315I [3]) was 54%. The GI50 (Ba/F3 Bcr-Abl/Y253H) was 1.7 ± 0.78 µM, the GI50 (Ba/F3 Bcr-Abl/Y253F) was 1.5 ± 0.56 µM and the GI50 (Ba/F3 Bcr-Abl/E255V) was 2.1 ± 0.75 µM. For the same compound, the GI50 (Ba/F3 Bcr-Abl/H396R) was 2.25 ± 0.77 µM, the “% Apoptosis by Flow Cytometry Analysis” value (Ba/F3; 3X IC50, 96 h time point) was 95% and the “% Apoptosis by Flow Cytometry Analysis” value (Ba/F3; 5X IC50, 48 h time point) was 46%. The “% Apoptosis by Flow Cytometry Analysis” value (Ba/F3; 5X IC50, 96 h time point) was 84%, the “% Apoptosis by Flow Cytometry Analysis” value (T315I; 3X IC50, 96 h time point) was 78% and the “% Apoptosis by Flow Cytometry Analysis” value (T315I; 5X IC50, 48 h time point) was 97.6%. The “% Apoptosis by Flow Cytometry Analysis” value (T315I; 5X IC50, 96 h time point) was 85%, the “% Apoptosis by Flow Cytometry Analysis” value (E255V; 3X IC50, 96 h time point) was 78% and the “% Apoptosis by Flow Cytometry Analysis” value (E255V; 5X IC50, 48 h time point) was 91.2%. The “% Apoptosis by Flow Cytometry Analysis” value (E255V; 5X IC50, 96 h time point) was 90.9%, the “% Apoptosis by Flow Cytometry Analysis” value (Y253; 3X IC50, 96 h time point) was 62% and the “% Apoptosis by Flow Cytometry Analysis” value (Y253; 5X IC50, 48 h time point) was 87.5%. The “% Apoptosis by Flow Cytometry Analysis” value (Y253; 5X IC50, 96 h time point) was 94.9%, the “% Apoptosis by Flow Cytometry Analysis” value (K562 [4]; 3X IC50, 96 h time point) was 5% and the “% Apoptosis by Flow Cytometry Analysis” value (K562 [4]; 5X IC50, 48 h time point) was 12.7%. For the same compound, the “% Apoptosis by Flow Cytometry Analysis” value (K562 [4]; 5X IC50, 96 h time point) was 3.4%.

`Oc1ccc(C=Cc2nc(Cc3ccccc3)no2)cc1O` [Compound of Example 4, 4-[2-(3-Benzyl-[1,2,4]oxadiazol-5-yl)-vinyl]-benzene-1,2-diol] was tested, and the GI50 (Ba/F3 Bcr-Abl/T315I [1]; [5]) was 1.88 ± 0.31 µM, the GI50 (Ba/F3 Bcr-Abl/T315I [1]; [6]) was < 10 µM and the GI50 (Ba/F3 Bcr-Abl/E255K) was > 10 µM. For the same compound, the GI50 (Ba/F3 Bcr-Abl/M351T) was 7.5 ± 0.7 µM, the GI50 (Ba/F3 Bcr-Abl/WT) was < 10 µM and the GI50 (Ba/F3 Bcr-Abl/Q252H) was 3.65 ± 0.65 µM. It also gave a GI50 (Ba/F3 Bcr-Abl/H396P) of 2.6 ± 1.2 µM, an IC50 (K562 [2]) of 11 to 100 µM and a GI50 (Ba/F3 Bcr-Abl/F359V) of 3 ± 0.7 µM. The GI50 (Ba/F3 Bcr-Abl/M244V) was 2.3 µM, the GI50 (Ba/F3 Bcr-Abl/F317L) was 2.85 ± 0.35 µM and the “Tumor growth inhibition percent (% GI) Ba/F3 Bcr-Abl/T315I” value (Ba/F3 Bcr-Abl/T315I [3]) was 65%. For the same compound, the GI50 (Ba/F3 Bcr-Abl/Y253H) was 2.5 ± 0.75 µM, the GI50 (Ba/F3 Bcr-Abl/Y253F) was 2.1 ± 0.14 µM and the GI50 (Ba/F3 Bcr-Abl/E255V) was 4 ± 1.4 µM. For the same compound, the GI50 (Ba/F3 Bcr-Abl/H396R) was 3.05 ± 0.07 µM, the “% Apoptosis by Flow Cytometry Analysis” value (Ba/F3; 3X IC50, 96 h time point) was 97% and the “% Apoptosis by Flow Cytometry Analysis” value (Ba/F3; 5X IC50, 48 h time point) was 46%. For the same compound, the “% Apoptosis by Flow Cytometry Analysis” value (Ba/F3; 5X IC50, 96 h time point) was 93%, the “% Apoptosis by Flow Cytometry Analysis” value (T315I; 3X IC50, 96 h time point) was 80.58% and the “% Apoptosis by Flow Cytometry Analysis” value (T315I; 5X IC50, 48 h time point) was 98.2%. For the same compound, the “% Apoptosis by Flow Cytometry Analysis” value (T315I; 5X IC50, 96 h time point) was 63.9%, the “% Apoptosis by Flow Cytometry Analysis” value (E255V; 3X IC50, 96 h time point) was 94.4% and the “% Apoptosis by Flow Cytometry Analysis” value (E255V; 5X IC50, 48 h time point) was 93%. The “% Apoptosis by Flow Cytometry Analysis” value (E255V; 5X IC50, 96 h time point) was 97.4%, the “% Apoptosis by Flow Cytometry Analysis” value (Y253; 3X IC50, 96 h time point) was 70.6% and the “% Apoptosis by Flow Cytometry Analysis” value (Y253; 5X IC50, 48 h time point) was 89%. The “% Apoptosis by Flow Cytometry Analysis” value (Y253; 5X IC50, 96 h time point) was 96.6%, the “% Apoptosis by Flow Cytometry Analysis” value (K562 [4]; 3X IC50, 96 h time point) was 10% and the “% Apoptosis by Flow Cytometry Analysis” value (K562 [4]; 5X IC50, 48 h time point) was 12.2%. The “% Apoptosis by Flow Cytometry Analysis” value (K562 [4]; 5X IC50, 96 h time point) was 5.2%.
